{
  "source": "patent US20230150960A1",
  "about": "“COMPOSITIONS AND METHODS OF USING CYANINE DYES TO TARGET CANCER AND MITOCHONDRIA” (Thomas Jefferson University, priority 2020, published 2023)",
  "type_in_all_cases": "physicochemical",
  "key": {"[1]": {"assay": "Solubility of glycerol-containing formulations (post vortexing, 30 min and overnight at 18° C.)", "settings": "compound 2 mg/mL; for solubility at 30 min / solubility / solubility at 30 s: glycerol-containing formulation; for solubility at 30 min / solubility: 18 °C; for solubility at 30 min: after 30 minutes incubation at 18° C.; for solubility at 30 s: post vortexing", "protocol": "(§1) Tables 3A, 3B, and 3C describe solubility experiments conducted with the indicated compounds under the listed conditions. Vortexing was conducted using a Denville Vortexer 59 (Denville Scientific Inc.), at maximum speed for 30 seconds. As used herein, the term overnight refers to a period lasting at least about 12-24 hours."}, "[2]": {"assay": "Solubility of sodium deoxycholate-containing formulations (post vortexing, 30 min and overnight at 18° C.)", "settings": "compound 2 mg/mL; for solubility at 30 s: post vortexing", "protocol": "as §1, with “5A, 5B,” for “3A, 3B,”, “5C” for “3C”"}, "[3]": {"assay": "Solubility of BSA-containing formulations (post vortexing, 30 min and overnight at 18° C.)", "settings": "compound 2 mg/mL; for solubility at 30 min / solubility: BSA-containing formulation, 18 °C, aqueous with cosolvent or surfactant or cyclodextrin; for solubility at 30 min: after 30 minutes incubation at 18° C.", "protocol": "Vortexing was conducted using a Denville Vortexer 59 (Denville Scientific Inc.), at maximum speed for 30 seconds. As used herein, the term overnight refers to a period lasting at least about 12-24 hours."}},
  "data": [
    {"smiles": "CCN1/C(=C/C=C/c2sc3ccccc3[n+]2CC)Sc2ccccc21", "note": "[JAC-B1, 3′,3′-Diethylthiacarbocyanine iodide]", "values": [
      {"measurement": "Solubility of glycerol-containing formulations after overnight incubation at 18° C., 50%", "setting": "[1]; 50% glycerol, overnight incubation at 18° C.", "value": "MFG"},
      {"measurement": "solubility at 30 min", "setting": "[1]; aqueous with cosolvent or surfactant or cyclodextrin, 10% glycerol, read-out: Solubility of glycerol-containing formulations after 30 min incubation at 18° C., 10%", "value": "< 2000", "unit": "µg/mL"},
      {"measurement": "solubility", "setting": "[1]; aqueous with cosolvent or surfactant or cyclodextrin, 10% glycerol, overnight incubation at 18° C., read-out: Solubility of glycerol-containing formulations after overnight incubation at 18° C., 10%", "value": "< 2000", "unit": "µg/mL"},
      {"measurement": "solubility at 30 min", "setting": "[1]; aqueous with cosolvent or surfactant or cyclodextrin, 20% glycerol, read-out: Solubility of glycerol-containing formulations after 30 min incubation at 18° C., 20%", "value": "< 2000", "unit": "µg/mL"},
      {"measurement": "solubility", "setting": "[1]; aqueous with cosolvent or surfactant or cyclodextrin, 20% glycerol, overnight incubation at 18° C., read-out: Solubility of glycerol-containing formulations after overnight incubation at 18° C., 20%", "value": "< 2000", "unit": "µg/mL"},
      {"measurement": "solubility at 30 min", "setting": "[1]; aqueous with cosolvent or surfactant or cyclodextrin, 30% glycerol, read-out: Solubility of glycerol-containing formulations after 30 min incubation at 18° C., 30%", "value": "< 2000", "unit": "µg/mL"},
      {"measurement": "solubility", "setting": "[1]; aqueous with cosolvent or surfactant or cyclodextrin, 30% glycerol, overnight incubation at 18° C., read-out: Solubility of glycerol-containing formulations after overnight incubation at 18° C., 30%", "value": "< 2000", "unit": "µg/mL"},
      {"measurement": "solubility at 30 min", "setting": "[1]; aqueous with cosolvent or surfactant or cyclodextrin, 40% glycerol, read-out: Solubility of glycerol-containing formulations after 30 min incubation at 18° C., 40%", "value": "< 2000", "unit": "µg/mL"},
      {"measurement": "solubility", "setting": "[1]; aqueous with cosolvent or surfactant or cyclodextrin, 40% glycerol, overnight incubation at 18° C., read-out: Solubility of glycerol-containing formulations after overnight incubation at 18° C., 40%", "value": "< 2000", "unit": "µg/mL"},
      {"measurement": "solubility at 30 min", "setting": "[1]; aqueous with cosolvent or surfactant or cyclodextrin, 50% glycerol, read-out: Solubility of glycerol-containing formulations after 30 min incubation at 18° C., 50%", "value": "> 2000", "unit": "µg/mL"},
      {"measurement": "solubility at 30 min", "setting": "[1]; 0% glycerol, read-out: Solubility of glycerol-containing formulations after 30 min incubation at 18° C., 0%", "value": "< 2000", "unit": "µg/mL"},
      {"measurement": "solubility", "setting": "[1]; 0% glycerol, overnight incubation at 18° C., read-out: Solubility of glycerol-containing formulations after overnight incubation at 18° C., 0%", "value": "< 2000", "unit": "µg/mL"},
      {"measurement": "solubility at 30 s", "setting": "[1]; aqueous with cosolvent or surfactant or cyclodextrin, 10% glycerol, read-out: Solubility of glycerol-containing formulations post vortexing, 10%", "value": "< 2000", "unit": "µg/mL"},
      {"measurement": "solubility at 30 s", "setting": "[1]; aqueous with cosolvent or surfactant or cyclodextrin, 20% glycerol, read-out: Solubility of glycerol-containing formulations post vortexing, 20%", "value": "< 2000", "unit": "µg/mL"},
      {"measurement": "solubility at 30 s", "setting": "[1]; aqueous with cosolvent or surfactant or cyclodextrin, 30% glycerol, read-out: Solubility of glycerol-containing formulations post vortexing, 30%", "value": "< 2000", "unit": "µg/mL"},
      {"measurement": "solubility at 30 s", "setting": "[1]; aqueous with cosolvent or surfactant or cyclodextrin, 40% glycerol, read-out: Solubility of glycerol-containing formulations post vortexing, 40%", "value": "< 2000", "unit": "µg/mL"},
      {"measurement": "solubility at 30 s", "setting": "[1]; aqueous with cosolvent or surfactant or cyclodextrin, 50% glycerol, read-out: Solubility of glycerol-containing formulations post vortexing, 50%", "value": "> 2000", "unit": "µg/mL"},
      {"measurement": "solubility at 30 s", "setting": "[1]; 0% glycerol, read-out: Solubility of glycerol-containing formulations post vortexing, 0%", "value": "< 2000", "unit": "µg/mL"},
      {"measurement": "Solubility of sodium deoxycholate-containing formulations after 30 min incubation at 18° C., 50 mg/mL", "setting": "[2]; sodium deoxycholate 50 mg/mL, after 30 minutes incubation at 18° C.", "value": "MFG"},
      {"measurement": "Solubility of sodium deoxycholate-containing formulations after 30 min incubation at 18° C., 100 mg/mL", "setting": "[2]; sodium deoxycholate 100 mg/mL, after 30 minutes incubation at 18° C.", "value": "MFG"},
      {"measurement": "solubility at 30 s", "setting": "[2]; sodium deoxycholate-containing formulation, aqueous with cosolvent or surfactant or cyclodextrin, sodium deoxycholate 12.5 mg/mL, read-out: Solubility of sodium deoxycholate-containing formulations post vortexing, 12.5 mg/mL", "value": "< 2000", "unit": "µg/mL"},
      {"measurement": "solubility at 30 s", "setting": "[2]; sodium deoxycholate-containing formulation, aqueous with cosolvent or surfactant or cyclodextrin, sodium deoxycholate 25 mg/mL, read-out: Solubility of sodium deoxycholate-containing formulations post vortexing, 25 mg/mL", "value": "< 2000", "unit": "µg/mL"},
      {"measurement": "solubility at 30 s", "setting": "[2]; sodium deoxycholate-containing formulation, aqueous with cosolvent or surfactant or cyclodextrin, sodium deoxycholate 50 mg/mL, read-out: Solubility of sodium deoxycholate-containing formulations post vortexing, 50 mg/mL", "value": "< 2000", "unit": "µg/mL"},
      {"measurement": "solubility at 30 s", "setting": "[2]; sodium deoxycholate-containing formulation, aqueous with cosolvent or surfactant or cyclodextrin, sodium deoxycholate 100 mg/mL, read-out: Solubility of sodium deoxycholate-containing formulations post vortexing, 100 mg/mL", "value": "< 2000", "unit": "µg/mL"},
      {"measurement": "solubility at 30 min", "setting": "[2]; sodium deoxycholate-containing formulation, aqueous with cosolvent or surfactant or cyclodextrin, sodium deoxycholate 12.5 mg/mL, after 30 minutes incubation at 18° C.", "value": "< 2000", "unit": "µg/mL"},
      {"measurement": "solubility", "setting": "[2]; sodium deoxycholate-containing formulation, aqueous with cosolvent or surfactant or cyclodextrin, sodium deoxycholate 12.5 mg/mL, overnight incubation at 18° C., read-out: Solubility of sodium deoxycholate-containing formulations after overnight incubation at 18° C., 12.5 mg/mL", "value": "< 2000", "unit": "µg/mL"},
      {"measurement": "solubility at 30 min", "setting": "[3]; BSA 5 mg/mL, read-out: Solubility of BSA-containing formulations after 30 min incubation at 18° C., 5 mg/mL", "value": "< 2000", "unit": "µg/mL"},
      {"measurement": "solubility at 30 min", "setting": "[3]; BSA 10 mg/mL, read-out: Solubility of BSA-containing formulations after 30 min incubation at 18° C., 10 mg/mL", "value": "< 2000", "unit": "µg/mL"},
      {"measurement": "solubility at 30 min", "setting": "[3]; BSA 15 mg/mL, read-out: Solubility of BSA-containing formulations after 30 min incubation at 18° C., 15 mg/mL", "value": "< 2000", "unit": "µg/mL"},
      {"measurement": "solubility at 30 min", "setting": "[3]; BSA 25 mg/mL, read-out: Solubility of BSA-containing formulations after 30 min incubation at 18° C., 25 mg/mL", "value": "> 2000", "unit": "µg/mL"},
      {"measurement": "solubility at 30 min", "setting": "[3]; BSA 80 mg/mL, read-out: Solubility of BSA-containing formulations after 30 min incubation at 18° C., 80 mg/mL", "value": "> 2000", "unit": "µg/mL"},
      {"measurement": "solubility", "setting": "[3]; BSA 80 mg/mL, overnight incubation at 18° C., read-out: Solubility of BSA-containing formulations after overnight incubation at 18° C., 80 mg/mL", "value": "> 2000", "unit": "µg/mL"},
      {"measurement": "solubility at 30 min", "setting": "[3]; BSA 100 mg/mL, read-out: Solubility of BSA-containing formulations after 30 min incubation at 18° C., 100 mg/mL", "value": "> 2000", "unit": "µg/mL"},
      {"measurement": "solubility", "setting": "[3]; BSA 100 mg/mL, overnight incubation at 18° C., read-out: Solubility of BSA-containing formulations after overnight incubation at 18° C., 100 mg/mL", "value": "> 2000", "unit": "µg/mL"},
      {"measurement": "Solubility of BSA-containing formulations after overnight incubation at 18° C., 5 mg/mL", "setting": "[3]; BSA 5 mg/mL, overnight incubation at 18° C.", "value": "MFG"},
      {"measurement": "Solubility of BSA-containing formulations after overnight incubation at 18° C., 10 mg/mL", "setting": "[3]; BSA 10 mg/mL, overnight incubation at 18° C.", "value": "MFG"},
      {"measurement": "Solubility of BSA-containing formulations after overnight incubation at 18° C., 15 mg/mL", "setting": "[3]; BSA 15 mg/mL, overnight incubation at 18° C.", "value": "MFG"},
      {"measurement": "Solubility of BSA-containing formulations after overnight incubation at 18° C., 25 mg/mL", "setting": "[3]; BSA 25 mg/mL, overnight incubation at 18° C.", "value": "MFG"}
    ]}
  ]
}
